Where a SMILES comes first, the peptide text is derived from it.
What was measured:
[1] = target: Methyl-CpG-binding domain protein 4 (Homo sapiens) (UniProt O95243); conditions: Compound Concentration 10.0 uM;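 note: MBD4 activity read as fluorescence at 594 nm from cleavage and release of a quenched duplex DNA oligonucleotide, with APE1 coupled to incise the strand and raise turnover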
Description: Inhibition of MBD4 by quantifying inhibition of MBD4-mediated cleavage and dissociation of quenched duplex DNA oligonucleotides, measured as fluorescence at 594 nm. To generate a functional strand incision and increase turn-over this assay is coupled to APE1.

[2] = target: DNA-3-methyladenine glycosylase (Homo sapiens) (UniProt P29372); conditions: Compound Concentration 10.0 uM;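 note: enzyme assay where MPG cuts a quenched duplex DNA oligonucleotide probe, paired with APE1 for strand incision and turnover, read as fluorescence at 594 nm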
Description: Inhibition of MPG by quantifying inhibition of MPG-mediated cleavage and dissociation of quenched duplex DNA oligonucleotides, measured as fluorescence at 594 nm. To generate a functional strand incision and increase turn-over this assay is coupled to APE1.

[3] = target: T1, Adenine DNA glycosylase (Homo sapiens) (UniProt Q9UIF7); conditions: Compound Concentration 10.0 uM, Hit No;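 note: human MUTYH activity read as 594 nm fluorescence from cleavage and release of a quenched DNA duplex, coupled with APE1 for strand incision, lower signal meaning inhibition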
T1 sequence (whole entry): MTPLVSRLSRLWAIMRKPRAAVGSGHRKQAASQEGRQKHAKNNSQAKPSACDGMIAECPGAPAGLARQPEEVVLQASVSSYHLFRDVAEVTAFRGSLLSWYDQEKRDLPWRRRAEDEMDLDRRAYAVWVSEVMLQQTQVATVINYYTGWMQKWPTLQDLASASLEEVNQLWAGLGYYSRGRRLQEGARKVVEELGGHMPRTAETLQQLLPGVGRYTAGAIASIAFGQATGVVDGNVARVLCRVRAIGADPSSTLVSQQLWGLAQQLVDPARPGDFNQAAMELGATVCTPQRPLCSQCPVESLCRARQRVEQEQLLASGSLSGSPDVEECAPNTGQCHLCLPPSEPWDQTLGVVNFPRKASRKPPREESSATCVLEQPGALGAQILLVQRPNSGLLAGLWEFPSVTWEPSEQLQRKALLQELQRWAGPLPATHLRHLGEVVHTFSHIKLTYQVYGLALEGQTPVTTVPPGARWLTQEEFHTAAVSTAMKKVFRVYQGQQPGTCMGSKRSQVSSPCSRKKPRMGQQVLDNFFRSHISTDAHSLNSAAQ
Description: Inhibition of MUTYH by quantifying inhibition of MUTYH-mediated cleavage and dissociation of quenched duplex DNA oligonucleotides, measured as fluorescence at 594 nm. To generate a functional strand incision and increase turn-over this assay is coupled to APE1.

[4] = target: Endonuclease 8-like 1 (Homo sapiens) (UniProt Q96FI4); conditions: Compound Concentration 10.0 uM, Hit No;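 note: fluorescence at 594 nm from quenched duplex DNA oligonucleotides released by NEIL1 cleavage and strand separation, reported as reduction of this enzyme activity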
Description: Inhibition of NEIL1 by quantifying inhibition of NEIL1-mediated cleavage and dissociation of quenched duplex DNA oligonucleotides, measured as fluorescence at 594 nm.

[5] = target: T2, Endonuclease 8-like 2 (Homo sapiens) (UniProt Q969S2); conditions: Compound Concentration 10.0 uM, Hit No;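 note: fluorescence at 594 nm reports NEIL2 cutting and release of a quenched double-stranded DNA oligo substrate, reduced signal read as inhibition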
T2 sequence (whole entry): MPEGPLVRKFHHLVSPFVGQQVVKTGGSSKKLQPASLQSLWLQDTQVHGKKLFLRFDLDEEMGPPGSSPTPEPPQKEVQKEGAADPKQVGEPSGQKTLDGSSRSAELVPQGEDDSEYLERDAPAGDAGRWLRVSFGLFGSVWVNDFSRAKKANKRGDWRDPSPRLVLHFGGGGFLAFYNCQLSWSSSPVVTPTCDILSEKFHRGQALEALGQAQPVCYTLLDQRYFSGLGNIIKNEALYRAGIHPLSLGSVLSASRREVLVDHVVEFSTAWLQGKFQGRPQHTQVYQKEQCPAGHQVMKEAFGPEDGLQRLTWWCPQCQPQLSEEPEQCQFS
Description: Inhibition of NEIL2 by quantifying inhibition of NEIL2-mediated cleavage and dissociation of quenched duplex DNA oligonucleotides, measured as fluorescence at 594 nm.

[6] = target: T3, Endonuclease III-like protein 1 (Homo sapiens) (UniProt P78549); conditions: Compound Concentration 10.0 uM, Hit No;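 note: enzyme assay tracking NTHL1 cutting and release of a quenched double-stranded DNA oligo substrate, read as fluorescence at 594 nm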
T3 sequence (whole entry): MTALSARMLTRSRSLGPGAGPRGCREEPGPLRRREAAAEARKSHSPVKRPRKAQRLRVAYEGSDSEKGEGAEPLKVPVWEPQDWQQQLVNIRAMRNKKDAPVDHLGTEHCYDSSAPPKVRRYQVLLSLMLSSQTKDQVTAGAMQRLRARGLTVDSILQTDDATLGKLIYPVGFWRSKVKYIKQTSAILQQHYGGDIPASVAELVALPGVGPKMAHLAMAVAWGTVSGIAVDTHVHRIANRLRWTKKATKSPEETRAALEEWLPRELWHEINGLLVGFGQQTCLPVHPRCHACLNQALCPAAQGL
Description: Inhibition of NTHL1 by quantifying inhibition of NTHL1-mediated cleavage and dissociation of quenched duplex DNA oligonucleotides, measured as fluorescence at 594 nm.

[7] = target: N-glycosylase/DNA lyase (Homo sapiens) (UniProt O15527); conditions: Compound Concentration 10.0 uM;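 note: OGG1 cleavage of a quenched duplex DNA oligonucleotide, coupled to APE1 for strand incision, read as fluorescence at 594 nm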
Description: Inhibition of OGG1 by quantifying inhibition of OGG1-mediated cleavage and dissociation of quenched duplex DNA oligonucleotides, measured as fluorescence at 594 nm. To generate a functional strand incision and increase turn-over this assay is coupled to APE1.

[8] = target: T4, Single-strand selective monofunctional uracil DNA glycosylase (Homo sapiens) (UniProt Q53HV7); conditions: Compound Concentration 10.0 uM, Hit No;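 note: enzymatic SMUG1 assay coupled with APE1, reading fluorescence at 594 nm released when a quenched double-stranded DNA oligonucleotide substrate is cleaved and separated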
T4 sequence (whole entry): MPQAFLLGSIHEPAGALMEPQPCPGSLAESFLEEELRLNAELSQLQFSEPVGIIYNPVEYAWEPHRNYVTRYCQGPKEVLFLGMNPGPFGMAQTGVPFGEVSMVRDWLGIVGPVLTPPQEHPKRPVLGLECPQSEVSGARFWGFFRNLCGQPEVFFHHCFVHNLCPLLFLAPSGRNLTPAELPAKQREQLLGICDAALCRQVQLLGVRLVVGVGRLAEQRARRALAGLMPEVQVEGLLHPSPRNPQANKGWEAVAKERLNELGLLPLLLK
Description: Inhibition of SMUG1 by quantifying inhibition of SMUG1-mediated cleavage and dissociation of quenched duplex DNA oligonucleotides, measured as fluorescence at 594 nm. To generate a functional strand incision and increase turn-over this assay is coupled to APE1.

[9] = target: G/T mismatch-specific thymine DNA glycosylase (Homo sapiens) (UniProt Q13569); conditions: Compound Concentration 10.0 uM;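 note: human TDG cleavage of quenched duplex DNA oligonucleotides coupled to APE1, strand release read as fluorescence at 594 nm, inhibition of TDG activity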
Description: Inhibition of TDG by quantifying inhibition of TDG-mediated cleavage and dissociation of quenched duplex DNA oligonucleotides, measured as fluorescence at 594 nm. To generate a functional strand incision and increase turn-over this assay is coupled to APE1.

[10] = target: Uracil-DNA glycosylase (Homo sapiens) (UniProt P13051); conditions: Compound Concentration 10.0 uM, Hit No;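 note: UNG excision on a quenched double-stranded DNA oligo probe, with APE1 added for strand incision and turnover, read as fluorescence at 594 nm as strands separate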
Uracil-DNA glycosylase (Homo sapiens), sequence (P13051 whole entry): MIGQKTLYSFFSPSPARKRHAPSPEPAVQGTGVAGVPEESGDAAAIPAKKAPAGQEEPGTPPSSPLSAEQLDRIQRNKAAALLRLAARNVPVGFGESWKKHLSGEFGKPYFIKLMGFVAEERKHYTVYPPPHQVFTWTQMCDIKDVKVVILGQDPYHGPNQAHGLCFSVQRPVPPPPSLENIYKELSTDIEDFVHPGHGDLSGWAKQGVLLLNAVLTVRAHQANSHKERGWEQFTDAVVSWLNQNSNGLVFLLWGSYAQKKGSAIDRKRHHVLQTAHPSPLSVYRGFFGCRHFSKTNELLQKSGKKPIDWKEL
Description: Inhibition of UNG by quantifying inhibition of UNG-mediated cleavage and dissociation of quenched duplex DNA oligonucleotides, measured as fluorescence at 594 nm. To generate a functional strand incision and increase turn-over this assay is coupled to APE1.

DNA-3-methyladenine glycosylase (Homo sapiens), sequence (P29372 whole entry): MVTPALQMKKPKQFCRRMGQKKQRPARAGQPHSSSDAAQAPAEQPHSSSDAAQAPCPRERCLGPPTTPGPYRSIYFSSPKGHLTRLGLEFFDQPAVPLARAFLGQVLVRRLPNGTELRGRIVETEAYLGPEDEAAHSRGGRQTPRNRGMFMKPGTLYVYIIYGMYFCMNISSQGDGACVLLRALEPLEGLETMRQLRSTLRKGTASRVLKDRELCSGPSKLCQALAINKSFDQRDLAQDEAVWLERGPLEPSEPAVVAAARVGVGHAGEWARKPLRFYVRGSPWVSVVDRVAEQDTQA
G/T mismatch-specific thymine DNA glycosylase (Homo sapiens), sequence (Q13569 whole entry): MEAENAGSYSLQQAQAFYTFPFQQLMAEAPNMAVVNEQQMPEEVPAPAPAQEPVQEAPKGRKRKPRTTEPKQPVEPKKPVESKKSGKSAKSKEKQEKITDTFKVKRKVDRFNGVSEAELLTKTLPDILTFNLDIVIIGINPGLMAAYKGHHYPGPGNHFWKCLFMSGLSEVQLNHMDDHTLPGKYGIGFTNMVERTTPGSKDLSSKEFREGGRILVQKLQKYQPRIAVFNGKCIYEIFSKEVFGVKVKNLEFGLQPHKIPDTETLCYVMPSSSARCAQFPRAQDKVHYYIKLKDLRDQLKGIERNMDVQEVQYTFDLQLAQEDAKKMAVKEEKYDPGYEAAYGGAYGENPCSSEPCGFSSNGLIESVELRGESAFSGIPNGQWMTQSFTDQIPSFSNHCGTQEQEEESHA
Endonuclease 8-like 1 (Homo sapiens), sequence (Q96FI4 whole entry): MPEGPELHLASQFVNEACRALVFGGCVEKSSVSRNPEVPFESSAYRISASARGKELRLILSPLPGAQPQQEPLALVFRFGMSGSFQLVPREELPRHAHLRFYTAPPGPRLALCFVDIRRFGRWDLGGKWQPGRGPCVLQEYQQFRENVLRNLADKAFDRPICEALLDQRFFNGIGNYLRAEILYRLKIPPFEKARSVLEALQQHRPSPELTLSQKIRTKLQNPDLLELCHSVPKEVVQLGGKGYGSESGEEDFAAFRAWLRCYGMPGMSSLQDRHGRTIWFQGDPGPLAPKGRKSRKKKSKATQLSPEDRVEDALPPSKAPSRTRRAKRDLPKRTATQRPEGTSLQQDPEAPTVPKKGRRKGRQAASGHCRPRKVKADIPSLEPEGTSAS
N-glycosylase/DNA lyase (Homo sapiens), sequence (O15527 whole entry): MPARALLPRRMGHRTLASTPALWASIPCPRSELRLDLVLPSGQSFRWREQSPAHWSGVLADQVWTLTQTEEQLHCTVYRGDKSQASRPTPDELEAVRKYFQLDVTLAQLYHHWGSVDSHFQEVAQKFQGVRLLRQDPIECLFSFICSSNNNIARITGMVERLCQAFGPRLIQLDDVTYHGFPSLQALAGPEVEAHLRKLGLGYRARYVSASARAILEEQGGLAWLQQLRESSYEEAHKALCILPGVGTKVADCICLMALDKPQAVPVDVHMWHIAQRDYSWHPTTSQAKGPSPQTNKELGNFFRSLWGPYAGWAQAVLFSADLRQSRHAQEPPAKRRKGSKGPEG
Methyl-CpG-binding domain protein 4 (Homo sapiens), sequence (O95243 whole entry, the tested form may be a part): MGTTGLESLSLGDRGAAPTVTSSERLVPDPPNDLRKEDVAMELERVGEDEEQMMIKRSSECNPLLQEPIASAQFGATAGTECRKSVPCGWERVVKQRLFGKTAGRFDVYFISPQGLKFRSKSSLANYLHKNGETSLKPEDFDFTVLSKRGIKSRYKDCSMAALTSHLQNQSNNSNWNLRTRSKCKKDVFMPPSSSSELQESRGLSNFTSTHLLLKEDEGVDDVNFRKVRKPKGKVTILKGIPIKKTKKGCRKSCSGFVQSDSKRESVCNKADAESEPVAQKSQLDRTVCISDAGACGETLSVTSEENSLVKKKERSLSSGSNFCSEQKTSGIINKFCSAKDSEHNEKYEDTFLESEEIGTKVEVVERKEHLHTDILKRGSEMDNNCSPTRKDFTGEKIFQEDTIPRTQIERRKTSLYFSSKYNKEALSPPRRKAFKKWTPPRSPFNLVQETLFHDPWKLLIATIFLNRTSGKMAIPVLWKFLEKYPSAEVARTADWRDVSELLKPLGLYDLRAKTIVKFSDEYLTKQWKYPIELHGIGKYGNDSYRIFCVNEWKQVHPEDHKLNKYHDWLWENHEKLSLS

| Structure (SMILES) | inhibition ([1]; Hit No) | inhibition ([2]; Hit No) | inhibition [3] | inhibition [4] | inhibition [5] | inhibition [6] | inhibition ([7]; Hit No) | inhibition [8] | inhibition ([9]; Hit No) | inhibition [10] | inhibition ([7]; Hit Yes) | inhibition ([1]; Hit Yes) | inhibition ([2]; Hit Yes) | inhibition ([9]; Hit Yes) |
| --- | --- | --- | --- | --- | --- | --- | --- | --- | --- | --- | --- | --- | --- | --- |
| CCOC(=O)C1=C(C)NC(C)=C(C(=O)OC)C1c1cccc([N+](=O)[O-])c1 (stereo not given) | -5.63% | 2.85% | -7.47% | 1.49% | -2.39% | 12.9% | -2.89% | 2.81% | 1.01% | -2.15% |  |  |  |  |
| Cc1ccc(C(C)(O)c2nc3ccccc3s2)c(C)c1 (stereo not given) | 0.731% | 10.5% | 0.661% | 7.8% | 11% | 8.52% | 2.68% | 9.99% | 14.6% | -8.45% |  |  |  |  |
| COc1ccccc1C(=O)Nc1cccc(NC(=O)c2cccc(C)c2)c1 | 14.3% | 18.5% | 8.28% | -5.33% | -3.15% | 15.4% | -2.96% | -5.33% | 19.8% | -7.92% |  |  |  |  |
| CCc1nc2c(o1)CC(c1ccc(C)cc1C)CC2=O (stereo not given) | 17.2% | 23.6% | -1.84% | 6.08% | 6.53% | -4.39% | -9.46% | 5.18% | 16.4% | 0.136% |  |  |  |  |
| O=C(Nc1ccc(S(=O)(=O)Nc2nccs2)cc1)C(c1ccccc1)c1ccccc1 | 66% | 34% | 80.2% | -2.51% | -1.11% | 17.9% | -6.39% | 7.67% | 52.5% | 3.78% |  |  |  |  |
| CN(C)C(=O)c1cc2cnc(Nc3ccc(N4CCNCC4)cn3)nc2n1C1CCCC1 | 24.6% | 59.5% | 16.4% | 3.31% | -0.842% | -3.4% | 4.33% | 21.9% | 57.4% | 8.98% |  |  |  |  |
| CC(C)C[C@@H](C(=O)N[C@@H](Cc1ccc(OCc2ccccc2)cc1)C(=O)NC(C)(C)C)N(C)Cc1ccc(C(C)(C)C)cc1 | 16.1% | 6.32% | 5.01% | 2.38% | -9.01% | 23.7% | 14.7% | -4.08% | 11.4% | -6.44% |  |  |  |  |
| Cn1nc(C(=O)NCc2ccc(C(=O)O)cc2)cc1-c1ccc2[nH]ccc2c1 | 70.9% | 115% | -5.73% | 1.38% | -4.83% | -3.92% | 0.23% | 8.36% | 56.9% | 0.276% |  |  |  |  |
| COc1cc(C(=O)NS(=O)(=O)c2ccccc2C)ccc1Cc1cn(C)c2ccc(NC(=O)OC3CCCC3)cc12 | 67.2% | 33.1% | 50.6% | 13.9% | 28.2% | 29.8% |  | 24% | 61.3% | 7.14% | 45.1% |  |  |  |
| CC1(C)[C@H]2C[C@H](C/C=C\CCCC(=O)O)[C@@H](NC(=O)c3csc4ccc(O)cc34)[C@@H]1C2 | 19.3% | 9.36% | 14.6% | 13.3% | 3.51% | -3.21% | 3.96% | -7.2% | 20.1% | -7.99% |  |  |  |  |
| Cc1cccc([C@H]2CC[C@@H](N3CCN(c4cccnc4)CC3)CC2)c1 (mixture of isomers) | 56.1% | 39% | 35.8% | 1.34% | 9.59% | -0.258% | 4.72% | 15.5% | 47.1% | 1.66% |  |  |  |  |
| Cc1nc(-c2ccc(C(F)(F)F)cc2)sc1COc1ccc([C@H](CC(=O)O)c2ccon2)cc1 | 20.8% | 3.92% | 23.2% | 3.95% | 2.26% | 16.6% |  | 7.09% | 27% | -5.51% | 41.1% |  |  |  |
| COc1ccc(NC(=O)c2ccc(-c3ccc(-c4noc(C)n4)cc3C)cc2)cc1OCCN(C)C |  |  | 104% | 1.34% | -1.11% | 8.82% | -3.51% | -6.46% |  | 2% |  | 98% | 83.7% | 101% |
| CC[C@H](C)[C@H](NC(=O)[C@H](Cc1ccc(O)cc1)NC(=O)[C@@H](NC(=O)[C@H](CCCNC(=N)N)NC(=O)[C@@H](N)CC(=O)O)C(C)C)C(=O)N[C@@H](Cc1cnc[nH]1)C(=O)N[C@H](C)C(=O)O (HELM PEPTIDE1{D.R.V.Y.I.H.[dA]}$$$$V2.0) | 6.33% | -4.39% | -8.51% | 9.79% | -1.88% | 17.1% | -9.35% | -8.77% | 1.59% | -2.81% |  |  |  |  |
| COc1ccc(CC(=O)NCc2ccccc2-c2ccccc2C(=O)NCc2ccc(F)cc2F)cc1 | 5.5% | 22.4% | 11.7% | 0.75% | 2.71% | -5.21% | -0.346% | 11% | 13.6% | 1.16% |  |  |  |  |
| O=[N+]([O-])c1ccc(CN2CCOCCOCCN(Cc3ccc([N+](=O)[O-])cc3)CCOCC2)cc1 | 13.5% | 31.4% | 3.42% | -2.36% | -0.35% | 23.7% | -5.46% | -2.67% | -1.51% | -6.52% |  |  |  |  |
| Cc1cc(C)c(N)c(C#Cc2cccc(F)c2)n1 | 6.71% | 3.92% | 4.63% | 0.982% | 5.26% | -3.21% | 4.23% | 6.75% | 17.2% | -6.05% |  |  |  |  |
| COc1cc(NC(=O)CCN2CCC(OC(=O)Nc3ccccc3-c3ccccc3)CC2)c(Cl)cc1CNC[C@H](O)c1ccc(O)c2[nH]c(=O)ccc12 | -6.36% | 7.51% | 11.4% | -7.76% | -2.98% | 9.99% | -7.57% | 0.984% | 16.7% | -5.99% |  |  |  |  |
| O=c1cccc2n1C[C@@H]1CNC[C@H]2C1 | 10.5% | -3.1% | 43.9% | -1.18% | -3.15% | -4.39% | -5.41% | -3.8% | -5.51% | -3.14% |  |  |  |  |
